Source: US20160244436A1, “NOVEL FUNCTIONALIZED 5-(PHENOXYMETHYL)-1,3-DIOXANE ANALOGS EXHIBITING CYTOCHROME P450 INHIBITION AND THEIR METHOD OF USE” (CORTENDO AB (PUBL), priority 2013, published 2016)

How the values were obtained:
Cyp19 = target: T1, Cyp19 (Homo sapiens, UniProt P11511); assay: Cyp19 off-target counter screen; type: biochemical; conditions: off-target enzyme
T1 sequence (P11511 1-503): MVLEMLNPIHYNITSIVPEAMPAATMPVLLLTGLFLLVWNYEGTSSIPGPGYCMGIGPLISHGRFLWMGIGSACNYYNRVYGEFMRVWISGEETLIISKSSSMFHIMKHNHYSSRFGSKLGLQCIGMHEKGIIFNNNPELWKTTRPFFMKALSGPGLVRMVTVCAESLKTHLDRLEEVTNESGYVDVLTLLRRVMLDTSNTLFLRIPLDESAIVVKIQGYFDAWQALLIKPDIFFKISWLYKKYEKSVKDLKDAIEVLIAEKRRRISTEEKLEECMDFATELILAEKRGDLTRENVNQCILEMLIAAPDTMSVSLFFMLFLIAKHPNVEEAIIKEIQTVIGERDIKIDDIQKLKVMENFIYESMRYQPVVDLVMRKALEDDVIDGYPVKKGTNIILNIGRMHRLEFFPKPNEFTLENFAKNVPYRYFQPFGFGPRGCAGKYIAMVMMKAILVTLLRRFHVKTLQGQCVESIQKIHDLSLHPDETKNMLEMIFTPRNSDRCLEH

recombinant CYP-17 = target: T2, recombinant CYP-17 (Homo sapiens, UniProt P05093); assay: Cyp17 assay: AD293 cells over-expressing recombinant CYP-17, 3H-acetic acid release from [21-3H] 17α-hydroxyl-Pregnenolone; type: cell-based
T2 construct: expressed in transfected cells; host or cells: AD293
T2 sequence (P05093 1-508): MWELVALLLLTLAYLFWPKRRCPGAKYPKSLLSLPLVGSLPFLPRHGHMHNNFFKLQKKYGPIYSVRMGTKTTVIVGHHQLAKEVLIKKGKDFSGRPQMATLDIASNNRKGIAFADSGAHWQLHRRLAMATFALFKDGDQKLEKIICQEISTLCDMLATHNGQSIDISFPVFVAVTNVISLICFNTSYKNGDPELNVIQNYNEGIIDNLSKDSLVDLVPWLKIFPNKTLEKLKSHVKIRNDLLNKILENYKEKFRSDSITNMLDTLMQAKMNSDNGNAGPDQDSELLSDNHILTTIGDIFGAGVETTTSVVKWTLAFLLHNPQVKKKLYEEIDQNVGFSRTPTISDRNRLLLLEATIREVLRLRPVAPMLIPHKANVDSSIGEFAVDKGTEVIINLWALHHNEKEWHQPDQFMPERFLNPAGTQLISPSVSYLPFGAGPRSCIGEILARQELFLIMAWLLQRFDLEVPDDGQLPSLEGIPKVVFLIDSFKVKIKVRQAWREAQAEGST
Description: Cyp17 assay protocol: AD293 cells that stably over-express recombinant CYP-17 were seeded in 96 well plates coated with poly D-lysine (15,000 cell per well) and incubated at 37° C. for 24 hours in Dulbecco's Modified Eagle Medium (DMEM) with Fetal Bovine Serum (FBS) that is stripped of hormones by charcoal treatment. The media is then removed, the cells are washed once with Phosphate buffer saline solution, and 50 μL Dulbecco's Modified Eagle Medium (DMEM) with Fetal Bovine Serum (FBS) that is stripped of hormones by charcoal treatment is added. Compounds of the disclosure are then added to the wells in eight concentration spanning 10 μM to 4.5 nM, and the plates are incubated for an additional 60 minutes at 37° C. [21-^3H] 17α-hydroxyl-Pregnenolone is then added (50 nCi per well, 31.25 nM) and the plates are incubated for an additional 4 hours at 37° C. The media is then collected, 200 μL, of chloroform is added, and the mixture is shaken for 1 hour. The aqueous layer is then separated and analyzed for the presence of ^3H-acetic acid using a Perkin Elmer Topcount NXT to determine IC50s of the compounds of the disclosure.

Cyp3A4 = Cyp3A4 (Homo sapiens, UniProt P08684); assay: Cyp3A4 off-target counter screen; type: in vitro ADME; conditions: off-target enzyme
Chain of Cyp3A4 (P08684 whole entry): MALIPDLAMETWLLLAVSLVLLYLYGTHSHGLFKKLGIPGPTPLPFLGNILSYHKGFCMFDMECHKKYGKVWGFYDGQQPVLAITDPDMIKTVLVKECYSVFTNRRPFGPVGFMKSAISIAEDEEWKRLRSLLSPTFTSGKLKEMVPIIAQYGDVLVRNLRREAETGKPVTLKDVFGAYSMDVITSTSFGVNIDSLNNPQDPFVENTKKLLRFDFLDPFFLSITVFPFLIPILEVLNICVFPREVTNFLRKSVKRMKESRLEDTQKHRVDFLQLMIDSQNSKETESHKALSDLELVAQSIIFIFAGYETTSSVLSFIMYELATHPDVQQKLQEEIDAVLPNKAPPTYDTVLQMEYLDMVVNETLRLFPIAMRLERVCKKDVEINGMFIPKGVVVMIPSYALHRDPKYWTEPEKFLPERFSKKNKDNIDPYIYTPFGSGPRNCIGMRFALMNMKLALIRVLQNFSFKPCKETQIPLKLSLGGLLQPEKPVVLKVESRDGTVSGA

**Q.** `CC(=O)N1CCN(c2ccc(CO[C@H]3CO[C@](Cn4ccnc4)(c4ccc(Cl)cc4Cl)OC3)cc2)CC1` [drawing 112] was tested. Which IC50 (Cyp19) did it give?
**A.** The IC50 was 0.35 µM.

**Q.** What about the IC50 (recombinant CYP-17) of the same compound?
**A.** The IC50 was 0.008 µM.

**Q.** What about the IC50 (Cyp3A4) of the same compound?
**A.** The IC50 was 0.109 µM.
